Measurements published in the NIST ThermoML archive (doi:10.1021/je700460w).
Numbers after ± are expanded uncertainties. Each block holds one compound with its values, some of them ahead of it.

What was measured:
[1] = xn = mol fraction of the nth substance listed; conditions: 303.15 K, 101 kPa, Liquid
[2] = 303.15 K; 101 kPa; Liquid

SMILES: CC(C)OC(C)C [diisopropyl ether] + CCCO
mass density ([1]; x1 = 0.0504): 790.59 ± 0.61 kg/m3
mass density ([1]; x1 = 0.0991): 785.96 ± 0.62 kg/m3
mass density ([1]; x1 = 0.2001): 775.66 ± 0.64 kg/m3
mass density ([1]; x1 = 0.2994): 766.52 ± 0.66 kg/m3
mass density ([1]; x1 = 0.4): 757.67 ± 0.68 kg/m3
mass density ([1]; x1 = 0.5018): 749.3 ± 0.69 kg/m3
mass density ([1]; x1 = 0.6006): 741.73 ± 0.71 kg/m3
mass density ([1]; x1 = 0.6995): 734.54 ± 0.72 kg/m3
mass density ([1]; x1 = 0.7994): 727.46 ± 0.73 kg/m3
mass density ([1]; x1 = 0.8981): 720.72 ± 0.75 kg/m3
mass density ([1]; x1 = 0.9498): 717.2 ± 0.75 kg/m3
mass density ([1]; x1 = 1): 713.51 ± 0.76 kg/m3

SMILES: CC(C)CC(C)(C)C [2,2,4-trimethylpentane] + CC(C)OC(C)C
mass density ([1]; x2 = 0): 683.74 ± 0.43 kg/m3

SMILES: CC(C)CC(C)(C)C [2,2,4-trimethylpentane]
mass density [2]: 683.74 ± 0.43 kg/m3

SMILES: CC(C)OC(C)C [diisopropyl ether]
mass density [2]: 713.51 ± 0.76 kg/m3

SMILES: CC(C)OC(C)C [diisopropyl ether] + CC(C)CC(C)(C)C
mass density ([1]; x1 = 0.0504): 684.87 ± 0.43 kg/m3
mass density ([1]; x1 = 0.102): 686.03 ± 0.43 kg/m3
mass density ([1]; x1 = 0.1985): 688.29 ± 0.43 kg/m3
mass density ([1]; x1 = 0.301): 690.84 ± 0.43 kg/m3
mass density ([1]; x1 = 0.3996): 693.42 ± 0.43 kg/m3
mass density ([1]; x1 = 0.5002): 696.27 ± 0.42 kg/m3
mass density ([1]; x1 = 0.6002): 699.34 ± 0.42 kg/m3
mass density ([1]; x1 = 0.7009): 702.6 ± 0.42 kg/m3
mass density ([1]; x1 = 0.7849): 705.55 ± 0.41 kg/m3
mass density ([1]; x1 = 0.9013): 709.78 ± 0.41 kg/m3
mass density ([1]; x1 = 0.9512): 711.68 ± 0.41 kg/m3
mass density ([1]; x1 = 1): 713.51 ± 0.41 kg/m3

Continued, values first:

mass density ([1]; x2 = 0): 796.55 ± 0.6 kg/m3
SMILES: CCCO [propan-1-ol] + CC(C)OC(C)C

mass density ([1]; x1 = 1): 796.55 ± 0.34 kg/m3
SMILES: CCCO [propan-1-ol] + CC(C)CC(C)(C)C

mass density [2]: 796.55 ± 0.6 kg/m3
SMILES: CCCO [propan-1-ol]

mass density ([1]; x2 = 0): 683.74 ± 0.43 kg/m3
mass density ([1]; x2 = 0.0484): 685.75 ± 0.43 kg/m3
mass density ([1]; x2 = 0.0993): 688.26 ± 0.43 kg/m3
mass density ([1]; x2 = 0.2038): 694.24 ± 0.42 kg/m3
mass density ([1]; x2 = 0.2983): 700.64 ± 0.42 kg/m3
mass density ([1]; x2 = 0.4): 708.63 ± 0.41 kg/m3
mass density ([1]; x2 = 0.5007): 717.82 ± 0.41 kg/m3
mass density ([1]; x2 = 0.5989): 728.33 ± 0.4 kg/m3
mass density ([1]; x2 = 0.6995): 741.12 ± 0.39 kg/m3
mass density ([1]; x2 = 0.7998): 756.21 ± 0.38 kg/m3
mass density ([1]; x2 = 0.8984): 774.29 ± 0.36 kg/m3
mass density ([1]; x2 = 0.9502): 785.01 ± 0.35 kg/m3
SMILES: CC(C)CC(C)(C)C [2,2,4-trimethylpentane] + CCCO
